Reference: ChEMBL document CHEMBL5055665, “Discovery of the Triazolo[1,5-a]Pyrimidine-Based Derivative WS-898 as a Highly Efficacious and Orally Bioavailable ABCB1 Inhibitor Capable of Overcoming Multidrug Resistance” (J Med Chem, 2021)
pIC50: −log10 of the molar value.

Tests used:
SW-620 [1] = assay: Reversal of resistance to paclitaxel-induced cytotoxicity in human SW-620/AD300 cells assessed as reversal fold at 5 uM preincubated for 4 hrs followed by paclitaxel addition and measured after 72 hrs by MTT assay relative to paclitaxel; assay type: functional; details: time 76 hrs
SW-620 [2] = assay: Reversal of resistance to paclitaxel-induced cytotoxicity in human SW-620/AD300 cells assessed as reduction in paclitaxel IC50 at 5 uM preincubated for 4 hrs followed by paclitaxel addition and measured after 72 hrs by MTT assay (reference value: 4.23 +/- 0.50 uM); assay type: functional, cell-based
SW-620 [3] = assay: Reversal of resistance to paclitaxel-induced cytotoxicity in human SW-620/AD300 cells assessed as reversal fold at 2 uM preincubated for 4 hrs followed by paclitaxel addition and measured after 72 hrs by MTT assay relative to paclitaxel; assay type: functional; details: time 76 hrs
SW-620 [4] = assay: Reversal of resistance to paclitaxel-induced cytotoxicity in human SW-620/AD300 cells assessed as reduction in paclitaxel IC50 at 2 uM preincubated for 4 hrs followed by paclitaxel addition and measured after 72 hrs by MTT assay (reference value: 4.23 +/- 0.50 uM); assay type: functional, cell-based
SW-620 [5] = assay: Reversal of resistance to paclitaxel-induced cytotoxicity in human SW-620/AD300 cells assessed as reduction in paclitaxel IC50 at 10 uM preincubated for 4 hrs followed by paclitaxel addition and measured after 72 hrs by MTT assay (reference value: 4.23 +/- 0.50 uM); assay type: functional, cell-based
SW-620 [6] = assay: Reversal of resistance to paclitaxel-induced cytotoxicity in human SW-620/AD300 cells assessed as reversal fold at 10 uM preincubated for 4 hrs followed by paclitaxel addition and measured after 72 hrs by MTT assay relative to paclitaxel; assay type: functional; details: time 76 hrs
SW-620 [7] = assay: Reversal of resistance to paclitaxel-induced cytotoxicity in human SW-620/AD300 cells assessed as reduction in paclitaxel IC50 at 1 uM preincubated for 4 hrs followed by paclitaxel addition and measured after 72 hrs by MTT assay (reference value: 4.23 +/- 0.50 uM); assay type: functional, cell-based
SW-620 [8] = assay: Reversal of resistance to paclitaxel-induced cytotoxicity in human SW-620/AD300 cells assessed as reversal fold at 1 uM preincubated for 4 hrs followed by paclitaxel addition and measured after 72 hrs by MTT assay relative to paclitaxel; assay type: functional; details: time 76 hrs
SW-620 [9] = assay: Reversal of resistance to paclitaxel-induced cytotoxicity in human SW-620/AD300 cells assessed as reduction in paclitaxel IC50 at 8 uM preincubated for 4 hrs followed by paclitaxel addition and measured after 72 hrs by MTT assay (reference value: 4.23 +/- 0.50 uM); assay type: functional, cell-based
SW-620 [10] = assay: Reversal of resistance to paclitaxel-induced cytotoxicity in human SW-620/AD300 cells assessed as reversal fold at 8 uM preincubated for 4 hrs followed by paclitaxel addition and measured after 72 hrs by MTT assay relative to paclitaxel; assay type: functional; details: time 76 hrs
SW-620 [11] = assay: Reversal of resistance to paclitaxel-induced cytotoxicity in human SW-620/AD300 cells assessed as reversal fold at 20 uM preincubated for 4 hrs followed by paclitaxel addition and measured after 72 hrs by MTT assay relative to paclitaxel; assay type: functional; details: time 76 hrs
SW-620 [12] = assay: Reversal of resistance to paclitaxel-induced cytotoxicity in human SW-620/AD300 cells assessed as reduction in paclitaxel IC50 at 20 uM preincubated for 4 hrs followed by paclitaxel addition and measured after 72 hrs by MTT assay (reference value: 4.23 +/- 0.50 uM); assay type: functional, cell-based

Compound | fold change (FC) (SW-620 [1]) | pIC50 (SW-620 [2]) | fold change (FC) (SW-620 [3]) | pIC50 (SW-620 [4]) | also measured
Cc1cc(Nc2ccc(C(=O)/C=C/c3ccc4ccccc4c3)cc2)n2nc(SCc3ccccc3[N+](=O)[O-])nc2n1 | 4.36 | 6.02 |  |  | 
Cc1cc(Nc2ccc(C(=O)/C=C/c3ccc4ccccc4c3)cc2)n2nc(SCc3cccc(C(F)(F)F)c3)nc2n1 | 2.04 | 5.68 |  |  | 
Cc1ccc(/C=C/C(=O)c2ccc(Nc3cc(C)nc4nc(SCc5nc6ccccc6[nH]5)nn34)cc2)cc1 |  |  | 2.78 | 5.82 | 
Cc1cc(Nc2ccc(C(=O)/C=C/c3ccc4ccccc4c3)cc2)n2nc(SCc3cccc4ccccc34)nc2n1 |  |  | 62.21 | 7.17 | 
Cc1cc(Nc2ccc(C(=O)/C=C/c3ccc4ccccc4c3)cc2)n2nc(SCc3ccc(C(F)(F)F)cc3)nc2n1 |  |  |  |  | pIC50 (SW-620 [5]): 5.84; fold change (FC) (SW-620 [6]): 2.92
Cc1cc(Nc2ccc(C(=O)/C=C/c3cccc(Br)n3)cc2)n2nc(SCc3nc4ccccc4[nH]3)nc2n1 |  |  |  |  | pIC50 (SW-620 [7]): 7.24; fold change (FC) (SW-620 [8]): 72.93
Cc1cc(Nc2ccc(C(=O)/C=C/c3ccc4ccccc4c3)cc2)n2nc(SC(=O)c3csc4ccc(Cl)cc34)nc2n1 |  |  | 120.86 | 7.46 | 
Cc1cc(Nc2ccc(C(=O)/C=C/c3ccc(Cl)cc3)cc2)n2nc(SCc3nc4ccccc4[nH]3)nc2n1 |  |  | 18.39 | 6.64 | 
Cc1cc(Nc2ccc(C(=O)/C=C/c3cccc(Cl)c3)cc2)n2nc(SCc3nc4ccccc4[nH]3)nc2n1 |  |  | 10.58 | 6.40 | 
O=C(/C=C/c1ccc2ccccc2c1)c1ccc(Nc2c3c(nc4ncnn24)CCC3)cc1 |  |  |  |  | pIC50 (SW-620 [9]): 5.98; fold change (FC) (SW-620 [10]): 4.03
Cc1cc(Nc2ccc(C(=O)/C=C/c3ccc4ccccc4c3)cc2)n2nc(SCc3cccc(Br)c3)nc2n1 | 15.67 | 6.57 |  |  | 
Cc1cc(Nc2ccc(C(=O)/C=C/c3ccc4ccccc4c3)cc2)n2nc(SCc3ccccc3C(F)(F)F)nc2n1 | 3.41 | 5.91 |  |  | 
Cc1cc(Nc2ccc(C(=O)/C=C/c3ccc4ccccc4c3)cc2)n2ncnc2n1 |  |  |  |  | pIC50 (SW-620 [5]): 6.14; fold change (FC) (SW-620 [6]): 5.79
Cc1cc(Nc2ccc(C(=O)/C=C/c3ccc4ccccc4c3)cc2)n2nc(SCc3ccccc3Br)nc2n1 | 10.07 | 6.38 |  |  | 
Cc1cc(Nc2ccc(C(=O)/C=C/c3ccc4ccccc4c3)cc2)n2nc(SCc3ccc(F)cc3)nc2n1 | 13.22 | 6.49 |  |  | 
Cc1cc(Nc2ccc(C(=O)/C=C/c3ccc(F)cc3)cc2)n2nc(SCc3nc4ccccc4[nH]3)nc2n1 |  |  | 49.8 | 7.07 | 
O=C(/C=C/c1ccc2ccccc2c1)c1ccc(Nc2cc(-c3ccccc3)nc3ncnn23)cc1 |  |  |  |  | pIC50 (SW-620 [5]): 6.10; fold change (FC) (SW-620 [6]): 5.35
Cc1cc(Nc2ccc(C(=O)/C=C/c3ccc4ccccc4c3)cc2)n2nc(SCc3cccc([N+](=O)[O-])c3)nc2n1 | 5.35 | 6.10 |  |  | 
Cc1cc(Nc2ccc(C(=O)/C=C/c3cccc(F)c3)cc2)n2nc(SCc3nc4ccccc4[nH]3)nc2n1 |  |  | 7.17 | 6.23 | 
Cc1cc(Nc2ccc(C(=O)/C=C/c3ccc(Br)cn3)cc2)n2nc(SCc3nc4ccccc4[nH]3)nc2n1 |  |  |  |  | pIC50 (SW-620 [7]): 6.96; fold change (FC) (SW-620 [8]): 39.09
Cc1cc(Nc2ccc(C(=O)/C=C/c3ccc4ccccc4c3)cc2)n2nc(SCc3ccc([N+](=O)[O-])cc3)nc2n1 | 3.74 | 5.95 |  |  | 
Cc1cc(Nc2ccc(C(=O)/C=C/c3ccc(OC(F)(F)F)cc3)cc2)n2nc(SCc3nc4ccccc4[nH]3)nc2n1 |  |  | 19.5 | 6.66 | 
CC(=O)c1ccc(Nc2cc(C)nc3nc(SCc4nc5ccccc5[nH]4)nn23)cc1 |  |  |  |  | fold change (FC) (SW-620 [11]): 2.6; pIC50 (SW-620 [12]): 5.79
Cc1cc(Nc2ccc(C(=O)/C=C/c3ccc4ccccc4c3)cc2)n2nc(SCc3ccc(Cl)cc3)nc2n1 | 7.42 | 6.24 |  |  | 
